Test results as given in US20230242616A1, “CHEMOKINE-SELECTIVE CXCR4 ECTODOMAIN-DERIVED (POLY)PEPTIDE” (Ludwig-Maximilians-Universität München, priority 2020, published 2023).
pIC50: −log10 of the molar value. One block for each molecule: values may come before it.

Tests used:
[1] = test system: primary human monocyte-derived macrophages; assay: Dil-LDL uptake / foam cell formation, MIF-mediated; type: cell-based; conditions: 80 nM MIF
Description: Dil-LDL uptake/foam cell formation. […] After washing with imaging solution (MEM without phenol red containing 30 mM HEPES, 0.5 g/L NaHCO3, pH 7.4, and 0.2% BSA), cells were exposed to 50 μg/mL 1,1′-dioctadecyl-3,3,3′3′-tetra-methylindocarbocyanine-labeled LDL (Dil-LDL) for 30 min at 4° C. followed by incubation at 37° C. for 20 min. Cells were washed with ice-cold imaging solution (pH 3.5), fixed, and counter-stained with Hoechst 33258.

[2] = test system: human monocyte-derived macrophages; assay: cells; conditions: Macrophage, read-out: IC50 of MIF-triggered Dil-oxLDL uptake
[3] = test system: human monocyte-derived macrophages; conditions: from titration of the CXCR4 inhibitor
CXCL12 = target: T1, CXCL12 (Homo sapiens, UniProt P48061); assay: Dot blot titration with TAMRA-msR4M-L1, immobilized CXCL12; type: binding
T1 construct: purchased Peprotech (or a gift of Dr. von Hundelshausen, LMU Munich)
Description: Dot blot. […] Non-specific binding was blocked with Tris-buffered saline (TBS), pH 7.4, containing 0.1% Tween-20 (TBS-T) and 1% BSA. […] Fluorescence intensities were measured at 600 nm using an Odyssey® Fc imager (LICOR Biosciences, Bad Homburg, Germany). The total intensity of each spot was automatically corrected by the individual background signal.

plaque-associated MIF = target: T2, plaque-associated MIF (Mus musculus, UniProt P34884); assay: Staining of mouse atherosclerotic plaque sections with Fluos-msR4M-L1; conditions: Ldlr−/− aortic root, Apoe−/− brachiocephalic artery
T2 construct: from tissue; host or cells: aortic root (Ldlr-/-) and brachiocephalic artery (Apoe-/-) sections of atherogenic mice
Description: Staining of atherosclerotic plaque tissue with Fluos-msR4M-L1. Immunofluorescent staining of atherosclerotic tissue with Fluos-msR4M-L1 was performed with specimens from atherogenic Ldlr^−/− and Apoe^−/− mice. Ldlr^−/− mice were on chow diet for 30 weeks and developed native atherosclerotic lesions as reported previously^14. Mif-deficient mice (Ldlr^−/− Mif^−/−) were used for comparison. Aortic root sections were deparaffinized and rehydrated. For antigen retrieval, slides were boiled in sodium citrate buffer, pH 6.0, 0.05% Tween-20, and blocked with PBS, containing 5% donkey serum and 1% BSA. For staining, slides were incubated at 4° C. with Fluos-msR4M-L1 (5 μM) in blocking buffer. DAPI was used for nuclear counterstain and sections were imaged using a Leica DMI8 fluorescent microscope. The mean fluorescence intensity localized to the aortic vessel wall was quantified via Image J.
Sides were fixed in ice-cold acetone, rehydrated in PBS, and blocked in PBS/1% BSA, incubated with 500 nM Fluos-msR4M-L1, and analyzed as above.

atherogenic Apoe−/− mice = assay: Localization of in-vivo-administered Fluos-msR4M-L1 (multiphoton microscopy); parameters: species or system mouse; conditions: three days before vessel preparation
[4] = test system: human carotid atherosclerotic plaque sections; assay: Staining of human carotid endarterectomy plaque sections with Fluos-msR4M-L1
Excerpt: Patient population, study groups and tissue samples. Carotid artery tissue samples (n=28) came from the Munich Vascular Biobank (MVB) and were from patients who underwent carotid endarterectomy (CEA) in the Department of Vascular and Endovascular Surgery at University Hospital of Technische Universität München. Preparation of samples for histological and IHC analysis has been reported^40. […] Healthy FFPE carotid vessels were obtained from the Forensic Medicine Department (n=6). The type of atherosclerotic lesions in the CEA samples was determined according to the American Heart Association (AHA) guidelines using HE and Elastica-van-Gieson (EVG) staining procedures as described^40. […] The study was approved by the local ethical committee of the University Hospital and followed the Guidelines of the World Medical Association Declaration of Helsinki. All patients provided informed consent. Immunohistochemistry/immunofluorescence staining. Immunofluorescence staining of human CEA tissues with Fluos-msR4M-L1 was performed using the same protocol as for paraffin-embedded specimens from Ldlr^−/− mice (see above). […] HRP-conjugated polyclonal rabbit anti-goat immunoglobulin (DAKO, P0160, 1:1000) was used as secondary antibody. Slides were counterstained with Mayer hematoxylin and stainings analyzed with a Leica DMi8.

T1 sequence (P48061 22-93): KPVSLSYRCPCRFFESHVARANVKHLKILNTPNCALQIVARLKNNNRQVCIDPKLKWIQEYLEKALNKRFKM

pIC50 [2]: 7.31
Molecule: c1cc(CN2CCCNCCNCCCNCC2)ccc1CN1CCCNCCNCCCNCC1 [AMD3100, reference compound]
effect on MIF-mediated Dil-LDL uptake [1]: blocked
CXCR4-dependent part of MIF-triggered oxLDL uptake [3]: approximately 50%

binding to immobilized CXCL12 on dot blot (CXCL12): no binding to CXCL12
Molecule: CC[C@H](C)[C@H](NC(=O)[C@H](Cc1ccc(O)cc1)NC(=O)[C@H](CCCNC(=N)N)NC(=O)[C@H](CC(=O)O)NC(=O)CCCCCCCCCCCNC(=O)CCCCCNC(=O)[C@H](CCCCN)NC(=O)[C@H](CS)NC(=O)[C@H](CC(C)C)NC(=O)[C@H](Cc1ccccc1)NC(=O)[C@H](CC(N)=O)NC(=O)CNC(=O)[C@H](Cc1ccccc1)NC(=O)[C@H](Cc1ccc(O)cc1)NC(=O)[C@H](Cc1c[nH]c2ccccc12)NC(=O)[C@H](CC(N)=O)NC(=O)[C@H](C)NC(=O)[C@@H](NC(=O)[C@H](C)NC(=O)[C@H](CC(=O)O)NC(=O)c1ccc2c(c1)C(=O)OC21c2ccc(N(C)C)cc2Oc2cc(N(C)C)ccc21)C(C)C)C(=O)N[C@@H](CS)C(=O)N[C@@H](CC(=O)O)C(=O)N[C@@H](CCCNC(=N)N)C(=O)N[C@@H](Cc1ccccc1)C(=O)N[C@@H](Cc1ccc(O)cc1)C(=O)N1CCC[C@H]1C(=O)N[C@@H](CC(N)=O)C(=O)N[C@@H](CC(=O)O)C(=O)N[C@@H](CC(C)C)C(=O)N[C@@H](Cc1c[nH]c2ccccc12)C(=O)N[C@H](C(N)=O)C(C)C [TAMRA-msR4M-L1, TAMRA-ECL1-6-Ahx-12-Ado-ECL2]

Molecule: Fluos-ECL1-6-Ahx-12-Ado-ECL2 (DAVANWYFGNFLCKDRYICDRFYPNDLWV; non-natural residues) [Fluos-msR4M-L1]
staining of plaque sections, Mif-proficient versus Mif-deficient mice (plaque-associated MIF): significantly more pronounced in plaque tissue from Mif-proficient atherogenic
tissue localization after intraperitoneal injection (atherogenic Apoe−/− mice): strongly localized to intimal plaque areas, while staining in spleen, liver, and brain was marginal
staining of stable versus unstable human carotid plaques and healthy vessels [4]: pronounced staining of stable carotid plaque tissue that was higher than Fluos-msR4M-L1 positivity detected in unstable plaques and healthy vessels
